According to paper PMC10829512, “Transport of metformin metabolites by guanidinium exporters of the small multidrug resistance family” (The Journal of General Physiology, 2024):

Assays:
Gdx-Eco = Gdx-Eco (Escherichia coli, UniProt P69937); assay: SSM electrophysiology of Gdx-Eco proteoliposomes; format: biochemical; details: for Transport currents in substrate screen: 2 mM substrate; for Km: pH 7.5, mean ± SEM, read-out: Km determined using SSM electrophysiology
Method: Gdx-Clo ([Kermani et al., 2018]), Gdx-Eco ([Kermani et al., 2018]), EmrE ([Kermani et al., 2022]), and Gdx-pAmi ([Martinez-Vaz et al., 2022]) construct design and purification have been described previously. […] Proteins were overexpressed in C41(DE3). Expression was induced by the addition of 0.2 mM IPTG for 3 h. Cells were lysed and extracted with 2% n-decyl-β-D-maltoside (DM) for 2 h. After pelleting insoluble cell debris, proteins were purified using cobalt affinity resin. Wash buffer contained 25 mM Tris, pH 8.5, 150 mM NaCl, and 5 mM DM. For Gdx-pAmi, NaCl concentration was increased to 500 mM NaCl. The affinity column was washed with wash buffer, then wash buffer with 10 mM imidazole, prior to elution with wash buffer with 400 mM imidazole. For Gdx-Clo and Gdx-Eco, histidine tags were cleaved with LysC (200 ng/mg of protein; 2 h at room temperature; New England Biolabs), and for all others, histidine tags were cleaved with thrombin (1 U/mg of protein, overnight at room temperature; MilliporeSigma). Proteins were further purified using a gel filtration Superdex200 column (Cytiva) equilibrated with 100 mM NaCl, 10 mM N-2-hydroxyethylpiperazine-N′-2-ethanesulfonic acid (HEPES), pH 7.5, and 5 mM DM. Purified proteins were stored at 4°C for up to 5 days before detergent binding assays. To prepare proteoliposomes for electrophysiology assays, purified protein was mixed with E. coli polar lipid extract (10 mg/ml; Avanti Polar Lipids) solubilized with 35 mM 3-[(3-cholamidopropyl)dimethylammonio]-1-propanesulfonate (CHAPS) at a protein to lipid ratio of 40 μg SMR transporter: mg lipid (1:370 protein:lipid molar ratio) prior to detergent removal by dialysis. For preparations that included Fluc-Bpe, liposomes were reconstituted with a molar ratio of 0.3 Fluc-Bpe:1 SMRGdx: 5920 lipid (1 μg Fluc-Bpe and ∼2.5 μg SMRGdx per mg lipid). For liposome transport assays, proteoliposomes were prepared similarly, except that a 2:1 mixture of 1-palmitoyl, 2-oleoylphosphatidylethanolamine (POPE) and 1-palmitoyl, 2-oleoylphosphatidylglycerol (POPG) (10 mg/ml; Avanti Polar Lipids) was used with 0.2 μg protein/mg lipid. Proteoliposomes were stored at −80°C until use.
(§1) SSM experiments were performed using SURFE^2R N1 instrument (Nanion Technologies). Sensors were prepared with a 1,2-diphytanoyl-sn-glycero-3-phosphocholine (DPhPC) lipid monolayer according to published protocols ([Bazzone et al., 2017]). Each sensor’s capacitance and conductance were verified before use (<80 nF capacitance, <50 nS conductance) using Nanion software protocols. Proteoliposome stock was diluted 1:25 in assay buffer (100 mM KCl, 100 mM KPO4, pH 7.5) prior to adsorption to the DPhPC monolayer. For substrate screening experiments, reference substrate samples (Gdm^+ for SMRGdx, and TPA^+ for SMRQac) were checked periodically to test for the stability of the sensor; if the current amplitude of the reference compound differed by >10% on one sensor, it indicated the desorption of liposomes, and the sensor was not used for further experiments. For every SSM electrophysiology experiment, we used the same general solution exchange protocol: after 2 s perfusion with a non-activating solution, we perfused substrate-containing buffer for 2 s and then returned to the equilibrium condition with a 4 s perfusion of non-activating buffer. For experiments with the S104C/A70C crosslinked variant, reducing conditions were established by the addition of 2.5 mM tris(2-carboxyethyl)phosphine (TCEP) to the activating and non-activating buffers.
We screened a series of metformin metabolites for transport using SSM electrophysiology (Fig. 2, A and B).

Gdx-pPro = Gdx-pPro (Citrobacter freundii, UniProt O69279); details: for Transport currents in substrate screen: 2 mM substrate
Gdx-Clo = target: T1, Gdx-Clo (Clostridiales bacterium oral taxon 876, UniProt U2EQ00); assay: Isothermal titration calorimetry (ITC); format: binding, Clostridales oral taxon 876; details: for n: ITC binding stoichiometry, pH 8.5, mean ± SEM; for Kd / TΔS / ΔG / ΔH / Binding stoichiometry: ITC; for Kd / TΔS / ΔG / ΔH: pH 8.5, 25°C, mean ± SEM; for Binding stoichiometry: pH 8.5, exothermic binding
T1 sequence (U2EQ00 1-105): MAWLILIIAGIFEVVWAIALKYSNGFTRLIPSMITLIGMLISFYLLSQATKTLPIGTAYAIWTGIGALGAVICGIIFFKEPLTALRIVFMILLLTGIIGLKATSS
Method: ITC experiments were conducted using a low-volume Nano ITC instrument (TA Instruments). […] For each experiment, 300 µl of 700 µM Gdx-Clo was loaded in the sample chamber maintained at 25°C with 350 rpm stirring speed. […] The sample was titrated (0.75 µl injections) at 100-s increments. Once an acceptable baseline slope was achieved (0.30 µW/h and 0.03 µW standard deviation), a 200 s baseline (∼112 µW) was taken prior to beginning titrations. Data were analyzed using NanoAnalyze software.
For both substrates, the Kd value measured using ITC was in good agreement with the Kd value obtained using tryptophan fluorescence, validating the tryptophan fluorescence approach to monitor substrate binding.

Fluc-Bpe = Fluc-Bpe (Bordetella pertussis, UniProt Q7VYU0); assay: SSM electrophysiology cross-reactivity control with individually reconstituted Fluc-Bpe; format: biochemical
Method: as §1, with “For experiments with the S104C/A70C crosslinked variant, reducing conditions were established by the addition of 2.5 mM tris(2-carboxyethyl)phosphine (TCEP) to the activating and non-activating buffers.” left out
The adsorption of proteoliposomes to the sensor is subject to considerable variability from experiment to experiment, so the current measurements from different sensors cannot be quantitatively compared ([Barthmes et al., 2016]). […]

[1] = substrate at fivefold Km, normalized to Fluc-Bpe fluoride current

Chain of Gdx-Eco (P69937 whole entry): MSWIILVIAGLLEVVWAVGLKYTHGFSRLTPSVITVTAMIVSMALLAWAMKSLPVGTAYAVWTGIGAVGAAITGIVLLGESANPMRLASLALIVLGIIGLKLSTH
Chain of Gdx-pPro (O69279 2-105): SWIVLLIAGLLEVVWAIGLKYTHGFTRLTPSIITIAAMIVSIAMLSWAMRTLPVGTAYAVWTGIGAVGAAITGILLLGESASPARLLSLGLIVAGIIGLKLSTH
Chain of Fluc-Bpe (Q7VYU0 whole entry): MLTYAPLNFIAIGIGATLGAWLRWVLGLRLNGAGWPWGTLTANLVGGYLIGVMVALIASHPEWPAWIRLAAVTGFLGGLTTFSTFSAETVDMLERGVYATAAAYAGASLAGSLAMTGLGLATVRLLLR

Structure (SMILES) | Transport currents in substrate screen (Gdx-Eco) | Km (Gdx-Eco) | Maximal velocity for Gdm+ relative to guanylurea (Gdx-Eco; [1]) | Transport currents in substrate screen (Gdx-pPro) | Maximal velocity for Gdm+ relative to guanylurea (Gdx-pPro; [1]) | n (Gdx-Clo) | Kd (Gdx-Clo) | TΔS (Gdx-Clo) | ΔG (Gdx-Clo) | ΔH (Gdx-Clo) | Binding stoichiometry (Gdx-Clo) | Response of Fluc-Bpe to substrate perfusion (Fluc-Bpe)
N=C(N)N [Gdm^+, guanidinium] | negative capacitive currents | 1700 ± 500 µM | approximately twofold higher | negative capacitive currents | approximately twofold higher | 0.56 ± 0.04 | 410 ± 40 µM | -0.3 ± 0.9 kcal/mol | -4.6 ± 0.1 kcal/mol | -4.9 ± 1.0 kcal/mol | ~1 substrate per protein dimer | do not elicit a response
N=C(N)NC(N)=O [Guanylurea, guanylurea] | negative capacitive currents | 850 ± 100 µM |  | negative capacitive currents |  | 0.43 ± 0.03 | 140 ± 30 µM | -1.8 ± 0.6 kcal/mol | -5.4 ± 0.06 kcal/mol | -7.2 ± 0.6 kcal/mol | ~1 substrate per protein dimer | do not elicit a response
